The record followed here is patent US12371430B2, “5-morpholin-4-yl-pyrazolo[4,3-b]pyridine derivatives” (Merck Patent GmbH, priority 2018, dated 2025).

The term IC50 denotes the concentration that gives 50% inhibition. Higher therefore signals weaker potency in that assay.

One experiment concerns the target ATR/ATRIP (Homo sapiens (Human), UniProt Q13535). The experiment in a line: ATR/ATRIP kinase assay (TR-FRET, p53 Ser15 phosphorylation). The format is biochemical. Conditions: 0.5 μM ATP, 50 nM p53. As for the experimental part:
ATR/ATRIP Kinase Assay—Measurement of ATR/ATRIP Inhibition
The IC50 value was determined by an ATR/ATRIP enzymatic assay. The assay comprises two steps: the enzymatic reaction and the detection step. First, a mixture of ATR/ATRIP protein (Ataxia Telangiectasia and Rad3-related protein/ATR interacting protein), the compound in question at different concentrations, p53 as substrate protein and adenosine triphosphate (ATP) are incubated in assay buffer. ATR phosporylates p53 at Ser15 and other residues. The amount of phosphorylated p53 is then detected using specific antibodies and the TR-FRET assay technology.
In detail: The ATR/ATRIP enzymatic assay is performed as a TR-FRET-(HTRF™, Cisbio Bioassays) based 384-well assay. In a first step, purified human recombinant ATR/ATRIP (human ATR, full length, GenBank ID: NM_001184.3, and human ATRIP, full length, GenBank ID AF451323.1, co-expressed in a mammalian cell line) is incubated in assay buffer for 15 minutes at 22° C. with test compound at different concentrations or without test compound (as a negative control). The assay buffer contains 25 mM HEPES pH 8.0, 10 mM Mg(CH3COO)2, 1 mM MnCl2, 0.1% BSA, 0.01% Brij® 35, and 5 mM dithiothreitol (DTT). An Echo 555 (Labcyte) is used for dispensing of compound solutions. Then, in a second step, purified human recombinant cmyc-tagged p53 (human p53, full length, GenBank ID: BC003596, expressed in Sf21 insect cells) and ATP are added and the reaction mixture is incubated for 25-35 minutes, typically 25 minutes, at 22° C. The pharmacologically relevant assay volume is 5 μl. The final concentrations in the assay during incubation of the reaction mixture are 0.3-0.5 nM, typically 0.3 nM, ATR/ATRIP, 50 nM p53, and 0.5 μM ATP. The enzymatic reaction is stopped by the addition of EDTA. The generation of phosphorylated p53 as a result of the ATR mediated reaction in the presence of ATP is detected by using specific antibodies [labeled with the fluorophores europium (Eu) as donor and d2 as acceptor (Cisbio Bioassays)] enabling FRET. For this purpose, 2 μl of antibody-containing stop solution (12.5 mM HEPES pH 8.0, 125 mM EDTA, 30 mM sodium chloride, 300 mM potassium fluoride, 0.006% Tween-20, 0.005% Brij® 35, 0.21 nM anti-phospho-p53(Ser15)-Eu antibody, 15 nM anti-cmyc-d2 antibody) are added to the reaction mixture. Following signal development for 2 h the plates are analyzed in an EnVision (PerkinElmer) microplate reader using the TRF mode with laser excitation. Upon excitation of the donor europium at 340 nm the emitted fluorescence light of the acceptor d2 at 665 nm as well as from the donor Eu at 615 nm are measured. The amount of phosphorylated p53 is directly proportional to the ratio of the amounts of emitted light i.e. the ratio of the relative fluorescence units (rfu) at 665 nm and 615 nm. Data are processed employing the Genedata Screener software. In particular, IC50 values are determined in the usual manner by fitting a dose-response curve to the data points using nonlinear regression analysis. • IC50=half maximal inhibitory concentration • ATP=Adenosine triphosphate • TR-FRET=Time-Resolved Fluorescence Resonance Energy Transfer • HTRF®=Homogeneous Time Resolved Fluorescence • HEPES=2-(4-(2-Hydroxyethyl)-1-piperazinyl)-ethanesulfonic acid • Mg(CH3COO)2=Magnesium acetate • MnCl2=Manganese(II)-chloride • BSA=Bovine Serum Albumin • EDTA=Ethylendiamine Tetraacetate • TRF=Time Resolved Fluorescence pCHK1 Cellular Assay
Background: In TR-FRET formats the signal depends on donor and acceptor labels being close together.

Experiment [1] deals with phosphorylation of Chk1 (Ser 345) in HT29 colon adenocarcinoma cells. Briefly: pCHK1 cellular assay. The format is cell-based. Conditions: Homo sapiens, HT-29, hydroxyurea 3 mM, 4 h. From the text:
Chk1 kinase acts downstream of ATR and has a key role in DNA damage checkpoint control. Activation of Chk1 involves phosphorylation of Ser317 and Ser345 (regarded as the preferential target for phosphorylation/activation by ATR) and occurs in response to blocked DNA replication and certain forms of genotoxic stress. Phosphorylation at Ser 345 serves to localize Chk1 to the nucleus following checkpoint activation.
This assay measures a decrease in phosphorylation of Chk1 (Ser 345) in HT29 colon adenocarcinoma cells following treatment with compound and hydroxyurea (which promotes fork stalling because of dNTP depletion) and using an immunocytochemical procedure and high content imaging.
For the assay HT29 cells are plated in culture medium (DMEM high Glucose (no phenol red), 2 mM Glutamax, 1 mM Pyruvate, 10% FCS into Greiner 384 well plates, black, μclear #781090 (2500 cells/well/30 μl) and incubated for at least 20 hours at 37° C., 10% CO2 and 90% rH. Diluted test compounds (1 nM-30 μM final) and hydroxyurea (3 mM final) are added simultaneously and cells are incubated for 4 h at 37° C. After fixation/prmeabilisation with 100% MeOH (−20° C. cold) and permeabilisation with 0.2% Triton X-100 a complete immunocytochemical procedure is performed using a specific anti-pChk1 antibody (Cell Signaling, #2348BF) and fluorescently labelled secondary antibody (Alexa Fluor® 488 goat anti-rabbit F(ab′)2 fragment, Invitrogen A11070) and parallel nuclear staining for cell counting.
The nuclear localised pChk1 signal is detected on an ImageXpress Ultra confocal high content reader and reported as % positive cells (nuclei).

Chain of ATR/ATRIP (Q13535 whole entry): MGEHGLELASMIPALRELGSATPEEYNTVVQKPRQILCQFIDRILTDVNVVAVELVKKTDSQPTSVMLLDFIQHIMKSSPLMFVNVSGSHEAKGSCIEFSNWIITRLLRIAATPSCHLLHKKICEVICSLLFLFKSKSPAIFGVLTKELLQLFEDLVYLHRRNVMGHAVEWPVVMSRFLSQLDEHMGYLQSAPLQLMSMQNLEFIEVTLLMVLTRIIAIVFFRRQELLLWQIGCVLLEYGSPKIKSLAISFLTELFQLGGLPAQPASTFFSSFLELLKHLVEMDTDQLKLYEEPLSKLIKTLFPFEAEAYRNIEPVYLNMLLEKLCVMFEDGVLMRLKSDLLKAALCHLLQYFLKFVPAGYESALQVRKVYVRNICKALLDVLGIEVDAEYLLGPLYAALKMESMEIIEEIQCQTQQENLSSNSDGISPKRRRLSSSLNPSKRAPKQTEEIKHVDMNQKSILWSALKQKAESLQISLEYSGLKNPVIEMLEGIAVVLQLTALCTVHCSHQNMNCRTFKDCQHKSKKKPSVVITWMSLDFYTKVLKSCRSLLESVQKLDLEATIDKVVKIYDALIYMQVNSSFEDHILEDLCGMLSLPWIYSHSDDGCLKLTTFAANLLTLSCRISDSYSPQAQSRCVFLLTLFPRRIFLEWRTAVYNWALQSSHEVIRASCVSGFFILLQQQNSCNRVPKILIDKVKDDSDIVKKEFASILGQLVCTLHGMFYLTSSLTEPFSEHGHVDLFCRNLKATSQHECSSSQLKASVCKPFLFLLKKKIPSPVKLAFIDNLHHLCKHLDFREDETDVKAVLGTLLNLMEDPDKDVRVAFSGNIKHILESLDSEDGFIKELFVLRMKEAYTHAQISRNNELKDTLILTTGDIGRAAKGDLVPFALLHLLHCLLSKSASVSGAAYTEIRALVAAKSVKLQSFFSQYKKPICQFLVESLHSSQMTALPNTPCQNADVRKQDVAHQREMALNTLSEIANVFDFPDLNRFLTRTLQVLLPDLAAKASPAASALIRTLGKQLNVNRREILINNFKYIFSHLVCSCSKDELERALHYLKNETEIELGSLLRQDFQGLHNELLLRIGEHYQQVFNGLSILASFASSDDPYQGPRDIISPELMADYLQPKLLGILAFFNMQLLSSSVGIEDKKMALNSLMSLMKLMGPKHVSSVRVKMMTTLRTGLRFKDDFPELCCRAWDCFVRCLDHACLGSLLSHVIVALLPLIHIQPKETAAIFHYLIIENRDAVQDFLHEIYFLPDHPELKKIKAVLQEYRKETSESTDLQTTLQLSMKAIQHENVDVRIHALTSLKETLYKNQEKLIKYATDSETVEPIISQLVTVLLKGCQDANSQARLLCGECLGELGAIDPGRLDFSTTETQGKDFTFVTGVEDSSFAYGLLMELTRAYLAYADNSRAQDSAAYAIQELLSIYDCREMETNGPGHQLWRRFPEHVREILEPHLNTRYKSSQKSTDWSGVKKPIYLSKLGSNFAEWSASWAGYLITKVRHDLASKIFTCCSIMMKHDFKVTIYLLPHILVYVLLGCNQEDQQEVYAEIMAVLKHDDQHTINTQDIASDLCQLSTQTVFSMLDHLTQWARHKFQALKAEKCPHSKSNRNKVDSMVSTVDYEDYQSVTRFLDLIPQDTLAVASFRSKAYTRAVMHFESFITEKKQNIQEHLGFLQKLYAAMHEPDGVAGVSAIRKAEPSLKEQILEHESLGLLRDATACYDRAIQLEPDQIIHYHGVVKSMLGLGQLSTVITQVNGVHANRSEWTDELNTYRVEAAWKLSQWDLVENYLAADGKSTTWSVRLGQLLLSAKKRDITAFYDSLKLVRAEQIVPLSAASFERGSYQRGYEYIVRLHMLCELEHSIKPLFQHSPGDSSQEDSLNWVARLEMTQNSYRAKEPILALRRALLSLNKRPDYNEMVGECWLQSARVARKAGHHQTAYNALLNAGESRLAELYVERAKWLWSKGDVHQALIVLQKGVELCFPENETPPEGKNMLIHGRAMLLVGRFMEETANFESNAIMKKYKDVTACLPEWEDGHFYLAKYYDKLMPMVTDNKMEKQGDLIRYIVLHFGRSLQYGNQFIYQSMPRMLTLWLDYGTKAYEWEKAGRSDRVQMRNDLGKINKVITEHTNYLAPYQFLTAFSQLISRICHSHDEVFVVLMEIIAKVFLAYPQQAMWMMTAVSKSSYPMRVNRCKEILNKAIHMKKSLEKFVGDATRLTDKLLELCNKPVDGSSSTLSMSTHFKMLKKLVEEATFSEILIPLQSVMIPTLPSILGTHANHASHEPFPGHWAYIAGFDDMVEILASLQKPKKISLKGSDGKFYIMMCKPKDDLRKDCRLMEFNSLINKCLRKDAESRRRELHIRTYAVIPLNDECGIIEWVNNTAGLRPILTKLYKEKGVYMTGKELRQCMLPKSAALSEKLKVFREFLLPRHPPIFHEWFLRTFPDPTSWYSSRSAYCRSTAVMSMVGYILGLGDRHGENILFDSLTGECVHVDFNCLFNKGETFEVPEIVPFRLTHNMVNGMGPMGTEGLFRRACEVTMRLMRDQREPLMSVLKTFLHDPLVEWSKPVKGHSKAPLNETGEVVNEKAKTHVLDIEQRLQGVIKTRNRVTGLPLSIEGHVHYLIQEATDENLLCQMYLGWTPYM
Chain of ATR/ATRIP (Q8WXE1 whole entry partner): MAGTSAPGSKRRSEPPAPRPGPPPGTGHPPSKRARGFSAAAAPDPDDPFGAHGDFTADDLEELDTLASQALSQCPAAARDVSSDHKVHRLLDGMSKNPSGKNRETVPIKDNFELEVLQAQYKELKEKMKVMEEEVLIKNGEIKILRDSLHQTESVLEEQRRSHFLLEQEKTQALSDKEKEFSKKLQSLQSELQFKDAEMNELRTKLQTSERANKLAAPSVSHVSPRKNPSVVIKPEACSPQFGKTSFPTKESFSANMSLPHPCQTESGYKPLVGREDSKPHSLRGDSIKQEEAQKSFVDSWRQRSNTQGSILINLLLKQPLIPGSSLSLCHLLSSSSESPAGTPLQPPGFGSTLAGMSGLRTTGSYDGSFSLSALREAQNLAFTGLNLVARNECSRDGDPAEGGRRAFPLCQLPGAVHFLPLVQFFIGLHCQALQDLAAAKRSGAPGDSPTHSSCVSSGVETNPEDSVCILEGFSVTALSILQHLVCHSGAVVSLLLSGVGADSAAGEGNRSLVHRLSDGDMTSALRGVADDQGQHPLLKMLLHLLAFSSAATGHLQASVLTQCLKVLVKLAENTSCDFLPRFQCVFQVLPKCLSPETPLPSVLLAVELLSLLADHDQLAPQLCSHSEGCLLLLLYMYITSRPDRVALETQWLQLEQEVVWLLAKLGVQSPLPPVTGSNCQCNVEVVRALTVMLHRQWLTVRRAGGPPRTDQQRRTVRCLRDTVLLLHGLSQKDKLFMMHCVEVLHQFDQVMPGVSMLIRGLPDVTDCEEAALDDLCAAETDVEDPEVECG

Consider `C[C@@H]1COCCN1c1ccc2c(n1)c(-c1cc[nH]n1)nn2-c1ccc(S(C)(=O)=O)cc1` [Compound 46, 1-(4-Methanesulfonyl-phenyl)-5-((R)-3-methyl-morpholin-4-yl)-3-(1H-pyrazol-3-yl)-1H-pyrazolo[4,3-b]pyridine], for which the IC50 is 25 nM at ATR/ATRIP and 1000 to 10000 nM in experiment [1].
Turning to `C[C@@H]1COCCN1c1cc(-c2cccnc2C(F)(F)F)c2c(n1)c(-c1cc[nH]n1)nn2C` [Compound 66, (3R)-3-Methyl-4-[1-methyl-3-(1H-pyrazol-3-yl)-7-[2-(trifluoro-methyl)pyridin-3-yl]-1H-pyrazolo[4,3-b]pyridin-5-yl]morpholine], the half-inhibitory concentration (IC50) against ATR/ATRIP was 1.9 nM; in experiment [1], less than 10 nM.
For `C[C@@H]1COCCN1c1cc(O)c2c(n1)c(-c1ccn[nH]1)nn2C` [Compound 45, 1-Methyl-5-((R)-3-methyl-morpholin-4-yl)-3-(2H-pyrazol-3-yl)-1H-pyrazolo[4,3-b]pyridin-7-ol], inhibition on ATR/ATRIP was half-maximal at 1800 nM (IC50).
Consider `Cc1nc([S@+](C)[O-])ccc1-c1cc(N2CCOC[C@H]2C)nc2c(-c3cc[nH]n3)nn(C)c12` [Compound 9, (3R)-4-(7-{6-[(S)-Methanesulfinyl]-2-methylpyridin-3-yl}-1-methyl-3-(1H-pyrazol-3-yl)-1H-pyrazolo[4,3-b]pyridin-5-yl)-3-methylmorpholine], for which the IC50 against ATR/ATRIP was 4.1 nM; in experiment [1], 10 to 100 nM.
For `Cc1ccc(S(C)(=O)=O)cc1-c1cc(N2CCOC[C@H]2C)nc2c(-c3ccn[nH]3)nn(C)c12` [Compound 75, (3R)-4-[7-(5-Methanesulfonyl-2-methylphenyl)-1-methyl-3-(1H-pyrazol-5-yl)-1H-pyrazolo[4,3-b]pyridin-5-yl]-3-methylmorpholine] the same measures were 21 nM and 100 to 1000 nM.
With `CC(C)Oc1cc(N2CCOC[C@H]2C)nc2c(-c3ccn[nH]3)nn(C)c12` [Compound 44, 7-Isopropoxy-1-methyl-5-((R)-3-methyl-morpholin-4-yl)-3-(2H-pyrazol-3-yl)-1H-pyrazolo[4,3-b]pyridine], the IC50 on ATR/ATRIP was 4.2 nM; in experiment [1], 100 to 1000 nM.
For `C[C@@H]1COCCN1c1cc(C2CC2)c2c(n1)c(-c1ccn[nH]1)nn2C` [Compound 43, 7-Cyclopropyl-1-methyl-5-((R)-3-methyl-morpholin-4-yl)-3-(2H-pyrazol-3-yl)-1H-pyrazolo[4,3-b]pyridine] the same measures were 3.9 nM and 100 to 1000 nM.
For the compound `C[C@@H]1COCCN1c1cc(-c2ccc(C(F)(F)F)nc2)c2c(n1)c(-c1cc[nH]n1)nn2C` [Compound 65, (3R)-3-Methyl-4-[1-methyl-3-(1H-pyrazol-3-yl)-7-[6-(trifluoro-methyl)pyridin-3-yl]-1H-pyrazolo[4,3-b]pyridin-5-yl]morpholine], the figures for the IC50 (against ATR/ATRIP; in experiment [1]) were 5.8 nM and 100 to 1000 nM, respectively.
In the case of `Cc1ccc(-c2cc(N3CCOC[C@H]3C)nc3c(-c4cc[nH]n4)n(C)nc23)cn1` [Compound 14, 2-Methyl-5-((R)-3-methyl-morpholin-4-yl)-7-(6-methyl-pyridin-3-yl)-3-(1H-pyrazol-3-yl)-2H-pyrazolo[4,3-b]pyridine], the IC50 at ATR/ATRIP is 99 nM; in experiment [1], 1000 to 10000 nM.
For `Cc1cccnc1-c1cc(N2CCOC[C@H]2C)nc2c(-c3cc[nH]n3)n[nH]c12` [Compound 39, (3R)-3-Methyl-4-[7-(3-methylpyridin-2-yl)-3-(1H-pyrazol-3-yl)-1H-pyrazolo[4,3-b]pyridin-5-yl]morpholine] the same measures were 7.9 nM and 100 to 1000 nM.
`Cc1c(-c2cc(N3CCOC[C@H]3C)nc3c(-c4cc[nH]n4)nn(C)c23)nnn1C` [Compound 84, (3R)-4-[7-(1,5-Dimethyl-1H-1,2,3-triazol-4-yl)-1-methyl-3-(1H-pyrazol-3-yl)-1H-pyrazolo[4,3-b]pyridin-5-yl]-3-methylmorpholine]: in experiment [1], the IC50 lay in the range of 10 to 100 nM.
Consider `C[C@@H]1COCCN1c1cc(C2CCS(=O)(=O)CC2)c2c(n1)c(-c1ccn[nH]1)nn2C` [Compound 82], for which, in experiment [1], the IC50 lay in the range of 100 to 1000 nM.
`C[C@@H]1COCCN1c1ccc2c(n1)c(-c1cc[nH]n1)nn2Cc1ccccn1` [Compound 88, (3R)-3-Methyl-4-[3-(1H-pyrazol-3-yl)-1-[(pyridin-2-yl)methyl]-1H-pyrazolo[4,3-b]pyridin-5-yl]morpholine] displayed an IC50 in experiment [1] of 1000 to 10000 nM.
Consider `C[C@@H]1COCCN1c1cc(C2=CC[S+]([O-])CC2)c2c(n1)c(-c1ccn[nH]1)nn2C` (stereo partly drawn) [Compound 80, 4-[1-Methyl-5-[(3R)-3-methylmorpholin-4-yl]-3-(1H-pyrazol-5-yl)-1H-pyrazolo[4,3-b]pyridin-7-yl]-3,6-dihydro-2H-1lambda4-thiopyran-1-one], for which, in experiment [1], the IC50 lay within 100 to 1000 nM.
`Cc1cc(S(C)(=O)=O)ncc1-c1cc(N2CCOC[C@H]2C)nc2c(-c3cc[nH]n3)n(C)nc12` [Compound 21, 7-(6-Methanesulfonyl-4-methyl-pyridin-3-yl)-2-methyl-5-((R)-3-methyl-morpholin-4-yl)-3-(1H-pyrazol-3-yl)-2H-pyrazolo[4,3-b]pyridine]: the midpoint of inhibition against ATR/ATRIP, the IC50, lay at 510 nM.
In experiment [1], `C[C@@H]1COCCN1c1cc(C2=CCSCC2)c2c(n1)c(-c1ccn[nH]1)nn2C` [Compound 79, (3R)-4-[7-(3,6-Dihydro-2H-thiopyran-4-yl)-1-methyl-3-(1H-pyrazol-5-yl)-1H-pyrazolo[4,3-b]pyridin-5-yl]-3-methylmorpholine] gave an IC50 of 10 to 100 nM.
On the same count and under the same terms, as for `C[C@@H]1COCCN1c1ccc2c(n1)c(-c1cc[nH]n1)nn2Cc1cccnc1` [Compound 83, (3R)-3-Methyl-4-[3-(1H-pyrazol-3-yl)-1-[(pyridin-3-yl)methyl]-1H-pyrazolo[4,3-b]pyridin-5-yl]morpholine], the figure is 1000 to 10000 nM.
As to `Cc1nc(S(C)(=O)=O)ccc1-c1cc(N2CCOC[C@H]2C)nc2c(-c3cc(C(F)(F)F)n[nH]3)nn(C)c12` [Compound 74, (3R)-4-[7-(6-Methanesulfonyl-2-methylpyridin-3-yl)-1-methyl-3-[3-(trifluoromethyl)-1H-pyrazol-5-yl]-1H-pyrazolo[4,3-b]pyridin-5-yl]-3-methyl-morpholine], half-maximal inhibition against ATR/ATRIP (IC50) was put at 17 nM.
Take `C[C@@H]1COCCN1c1cc([C@H]2CCOC2)c2c(n1)c(-c1ccn[nH]1)nn2C` [Compound 72, 1-Methyl-5-((R)-3-methyl-morpholin-4-yl)-3-(2H-pyrazol-3-yl)-7-(R)-tetrahydro-furan-3-yl-1H-pyrazolo[4,3-b]pyridine]: the IC50 in experiment [1] fell in the range of 10 to 100 nM.
